Source: patent publication US11357779B2 (G1 Therapeutics, Inc., priority 2018, dated 2022)
Read-outs that look alike come from different tables or passages of the source.

Assay: Noncompartmental pharmacokinetic parameters (Cmax, Tmax, AUC, Racc) in QD and BID cohorts of Form B
Assay type: in vivo, human
Conditions: human, plasma, oral, Compound III
Method: Analysis of plasma concentration versus time data for calculation of standard pharmacokinetic (PK) parameters following oral administration was conducted using Phoenix WinNonlin version 6.3 using actual blood sampling times.
The following pharmacokinetic parameters were calculated from the concentration versus time data obtained in Example 1 for each of the above QD (200 mg, 300 mg, 400 mg, 500 mg, or 650 mg dosed) and BID (100 mg, 150 mg, or 200 mg doses) Form B of Compound II dosage cohorts: • Cmax—the observed peak plasma concentration determined from the plasma concentration versus time data obtained on Day 1 and Day 29, as applicable; • Tmax—the time to reach the observed peak plasma concentration from the plasma concentration versus time data obtained on Day 1 and Day 29, as applicable; • AUC—area under the plasma concentration versus time curve during a dosing interval on Day 1 and Day 29, as applicable; and • Racc—accumulation ratio calculated as AUCDay 29/AUCDay 1.

AUC(0-t) (150 mg, 150 mg BID of Form B, Cohort 7, Day 1, read-out: AUClast (Median)): 16.3 ng·h/mL
Cmax (150 mg, 150 mg BID of Form B, Cohort 7, Day 1, read-out: Cmax (Mean)): 3.2 ng/mL
Cmax (150 mg, 150 mg BID of Form B, Cohort 7, Day 1, read-out: Cmax (Median)): 3 ng/mL
Tmax (150 mg, 150 mg BID of Form B, Cohort 7, Day 1, read-out: Tmax (Mean)): 3 h
Tmax (150 mg, 150 mg BID of Form B, Cohort 7, Day 1, read-out: Tmax (Median)): 3 h
AUC(0-t) (150 mg, 150 mg BID of Form B, Cohort 7, Day 29, read-out: AUClast (Mean)): 47.9 ng·h/mL
AUC(0-t) (150 mg, 150 mg BID of Form B, Cohort 7, Day 29, read-out: AUClast (Median)): 23.3 ng·h/mL
Cmax (150 mg, 150 mg BID of Form B, Cohort 7, Day 29, read-out: Cmax (Mean)): 6.23 ng/mL
Cmax (150 mg, 150 mg BID of Form B, Cohort 7, Day 29, read-out: Cmax (Median)): 3.55 ng/mL
Tmax (150 mg, 150 mg BID of Form B, Cohort 7, Day 29, read-out: Tmax (Mean)): 3 h
Tmax (150 mg, 150 mg BID of Form B, Cohort 7, Day 29, read-out: Tmax (Median)): 3 h
AUC(0-t) (200 mg, 200 mg BID of Form B, Cohort 8, Day 1, read-out: AUClast (Mean)): 17.2 ng·h/mL
AUC(0-t) (200 mg, 200 mg BID of Form B, Cohort 8, Day 1, read-out: AUClast (Median)): 18.6 ng·h/mL
Cmax (200 mg, 200 mg BID of Form B, Cohort 8, Day 1, read-out: Cmax (Mean)): 2.87 ng/mL
Cmax (200 mg, 200 mg BID of Form B, Cohort 8, Day 1, read-out: Cmax (Median)): 3 ng/mL
Tmax (200 mg, 200 mg BID of Form B, Cohort 8, Day 1, read-out: Tmax (Mean)): 4.75 h
Tmax (200 mg, 200 mg BID of Form B, Cohort 8, Day 1, read-out: Tmax (Median)): 5 h
AUC(0-t) (200 mg, 200 mg BID of Form B, Cohort 8, Day 29, read-out: AUClast (Mean)): 22 ng·h/mL
AUC(0-t) (200 mg, 200 mg BID of Form B, Cohort 8, Day 29, read-out: AUClast (Median)): 20.1 ng·h/mL
Cmax (200 mg, 200 mg BID of Form B, Cohort 8, Day 29, read-out: Cmax (Mean)): 2.79 ng/mL
Cmax (200 mg, 200 mg BID of Form B, Cohort 8, Day 29, read-out: Cmax (Median)): 2.77 ng/mL
Tmax (200 mg, 200 mg BID of Form B, Cohort 8, Day 29, read-out: Tmax (Mean)): 6.33 h
Tmax (200 mg, 200 mg BID of Form B, Cohort 8, Day 29, read-out: Tmax (Median)): 4 h
AUC(0-t) (200 mg, 200 mg QD of Form B, Cohort 1, Day 1, read-out: AUClast (Mean)): 23.7 ng·h/mL
AUC(0-t) (200 mg, 200 mg QD of Form B, Cohort 1, Day 1, read-out: AUClast (Median)): 21.3 ng·h/mL
Cmax (200 mg, 200 mg QD of Form B, Cohort 1, Day 1, read-out: Cmax (Mean)): 4.18 ng/mL
Cmax (200 mg, 200 mg QD of Form B, Cohort 1, Day 1, read-out: Cmax (Median)): 3.88 ng/mL
Tmax (200 mg, 200 mg QD of Form B, Cohort 1, Day 1, read-out: Tmax (Mean)): 4.17 h
Tmax (200 mg, 200 mg QD of Form B, Cohort 1, Day 1, read-out: Tmax (Median)): 4 h
AUC(0-t) (200 mg, 200 mg QD of Form B, Cohort 1, Day 29, read-out: AUClast (Mean)): 27.9 ng·h/mL
AUC(0-t) (200 mg, 200 mg QD of Form B, Cohort 1, Day 29, read-out: AUClast (Median)): 25.4 ng·h/mL
Cmax (200 mg, 200 mg QD of Form B, Cohort 1, Day 29, read-out: Cmax (Mean)): 3.14 ng/mL
Cmax (200 mg, 200 mg QD of Form B, Cohort 1, Day 29, read-out: Cmax (Median)): 2.52 ng/mL
Tmax (200 mg, 200 mg QD of Form B, Cohort 1, Day 29, read-out: Tmax (Mean)): 4.2 h
Tmax (200 mg, 200 mg QD of Form B, Cohort 1, Day 29, read-out: Tmax (Median)): 4 h
AUC(0-t) (300 mg, 300 mg QD of Form B, Cohort 2, Day 1, read-out: AUClast (Mean)): 43.1 ng·h/mL
AUC(0-t) (300 mg, 300 mg QD of Form B, Cohort 2, Day 1, read-out: AUClast (Median)): 53.1 ng·h/mL
Cmax (300 mg, 300 mg QD of Form B, Cohort 2, Day 1, read-out: Cmax (Mean)): 4.81 ng/mL
Cmax (300 mg, 300 mg QD of Form B, Cohort 2, Day 1, read-out: Cmax (Median)): 6.21 ng/mL
Tmax (300 mg, 300 mg QD of Form B, Cohort 2, Day 1, read-out: Tmax (Mean)): 3.67 h
Tmax (300 mg, 300 mg QD of Form B, Cohort 2, Day 1, read-out: Tmax (Median)): 4 h
AUC(0-t) (300 mg, 300 mg QD of Form B, Cohort 2, Day 29, read-out: AUClast (Mean)): 66.2 ng·h/mL
AUC(0-t) (300 mg, 300 mg QD of Form B, Cohort 2, Day 29, read-out: AUClast (Median)): 56.1 ng·h/mL
Cmax (300 mg, 300 mg QD of Form B, Cohort 2, Day 29, read-out: Cmax (Mean)): 5.44 ng/mL
Cmax (300 mg, 300 mg QD of Form B, Cohort 2, Day 29, read-out: Cmax (Median)): 5.56 ng/mL
Tmax (300 mg, 300 mg QD of Form B, Cohort 2, Day 29, read-out: Tmax (Mean)): 5.33 h
Tmax (300 mg, 300 mg QD of Form B, Cohort 2, Day 29, read-out: Tmax (Median)): 4 h
AUC(0-t) (400 mg, 400 mg QD of Form B, Cohort 3, Day 1, read-out: AUClast (Mean)): 25.6 ng·h/mL
AUC(0-t) (400 mg, 400 mg QD of Form B, Cohort 3, Day 1, read-out: AUClast (Median)): 29.2 ng·h/mL
Cmax (400 mg, 400 mg QD of Form B, Cohort 3, Day 1, read-out: Cmax (Mean)): 4.85 ng/mL
Cmax (400 mg, 400 mg QD of Form B, Cohort 3, Day 1, read-out: Cmax (Median)): 4.66 ng/mL
Tmax (400 mg, 400 mg QD of Form B, Cohort 3, Day 1, read-out: Tmax (Mean)): 4.33 h
Tmax (400 mg, 400 mg QD of Form B, Cohort 3, Day 1, read-out: Tmax (Median)): 6 h
AUC(0-t) (400 mg, 400 mg QD of Form B, Cohort 3, Day 29, read-out: AUClast (Mean)): 42.6 ng·h/mL
AUC(0-t) (400 mg, 400 mg QD of Form B, Cohort 3, Day 29, read-out: AUClast (Median)): 40.9 ng·h/mL
Cmax (400 mg, 400 mg QD of Form B, Cohort 3, Day 29, read-out: Cmax (Mean)): 3.5 ng/mL
Cmax (400 mg, 400 mg QD of Form B, Cohort 3, Day 29, read-out: Cmax (Median)): 3.4 ng/mL
Tmax (400 mg, 400 mg QD of Form B, Cohort 3, Day 29, read-out: Tmax (Mean)): 5.33 h
Tmax (400 mg, 400 mg QD of Form B, Cohort 3, Day 29, read-out: Tmax (Median)): 6 h
AUC(0-t) (500 mg, 500 mg QD of Form B, Cohort 4, Day 1, read-out: AUClast (Mean)): 77.7 ng·h/mL
AUC(0-t) (500 mg, 500 mg QD of Form B, Cohort 4, Day 1, read-out: AUClast (Median)): 79 ng·h/mL
Cmax (500 mg, 500 mg QD of Form B, Cohort 4, Day 1, read-out: Cmax (Mean)): 7.98 ng/mL
Cmax (500 mg, 500 mg QD of Form B, Cohort 4, Day 1, read-out: Cmax (Median)): 8.03 ng/mL
Tmax (500 mg, 500 mg QD of Form B, Cohort 4, Day 1, read-out: Tmax (Mean)): 5.5 h
Tmax (500 mg, 500 mg QD of Form B, Cohort 4, Day 1, read-out: Tmax (Median)): 6 h
AUC(0-t) (500 mg, 500 mg QD of Form B, Cohort 4, Day 29, read-out: AUClast (Mean)): 66.4 ng·h/mL
AUC(0-t) (500 mg, 500 mg QD of Form B, Cohort 4, Day 29, read-out: AUClast (Median)): 69.6 ng·h/mL
Cmax (500 mg, 500 mg QD of Form B, Cohort 4, Day 29, read-out: Cmax (Mean)): 5.98 ng/mL
Cmax (500 mg, 500 mg QD of Form B, Cohort 4, Day 29, read-out: Cmax (Median)): 5.37 ng/mL
Tmax (500 mg, 500 mg QD of Form B, Cohort 4, Day 29, read-out: Tmax (Mean)): 3.67 h
Tmax (500 mg, 500 mg QD of Form B, Cohort 4, Day 29, read-out: Tmax (Median)): 4 h
AUC(0-t) (650 mg, 650 mg QD of Form B, Cohort 5, Day 1, read-out: AUClast (Mean)): 123 ng·h/mL
AUC(0-t) (650 mg, 650 mg QD of Form B, Cohort 5, Day 1, read-out: AUClast (Median)): 125 ng·h/mL
Cmax (650 mg, 650 mg QD of Form B, Cohort 5, Day 1, read-out: Cmax (Mean)): 10.9 ng/mL
Cmax (650 mg, 650 mg QD of Form B, Cohort 5, Day 1, read-out: Cmax (Median)): 10.4 ng/mL
Tmax (650 mg, 650 mg QD of Form B, Cohort 5, Day 1, read-out: Tmax (Mean)): 6.67 h
Tmax (650 mg, 650 mg QD of Form B, Cohort 5, Day 1, read-out: Tmax (Median)): 7 h
AUC(0-t) (650 mg, 650 mg QD of Form B, Cohort 5, Day 29, read-out: AUClast (Mean)): 125 ng·h/mL
AUC(0-t) (650 mg, 650 mg QD of Form B, Cohort 5, Day 29, read-out: AUClast (Median)): 125 ng·h/mL
Cmax (650 mg, 650 mg QD of Form B, Cohort 5, Day 29, read-out: Cmax (Mean)): 8.7 ng/mL
Cmax (650 mg, 650 mg QD of Form B, Cohort 5, Day 29, read-out: Cmax (Median)): 8.7 ng/mL
Tmax (650 mg, 650 mg QD of Form B, Cohort 5, Day 29, read-out: Tmax (Mean)): 7 h
Tmax (650 mg, 650 mg QD of Form B, Cohort 5, Day 29, read-out: Tmax (Median)): 7 h
Compound: O=C1NCC2(CCCCC2)n2c1cc1cnc(Nc3ccc(N4CCNCC4)cn3)nc12 [Compound III, 2′-((5-(piperazin-1-yl)pyridin-2-yl)amino)-7′,8′-dihydro-6′H-spiro[cyclohexane-1,9′-pyrazino[1′,2′:1,5]pyrrolo[2,3-d]pyrimidin]-6′-one]
